# From patent publication US20040087558A1, “Methods of using and compositions comprising selective cytokine inhibitory drugs for treatment, modification and management of pain” (priority 2002, published 2004)
# Key:
# [1] = Clinical study in pain patients with upper extremity CRPS; format: in vivo, human; details: 1,200 mg as a continuous oral daily dose
# Description: Selective cytokine inhibitory drugs of the invention such as 3-(3,4-dimethoxy-phenyl)-3-(1-oxo-1,3-dihydro-isoindol-2-yl)-propionamide are administered in an amount of 400 to 1,200 mg per day to patients with pain syndromes for three to six months. A baseline evaluation is performed for the effect of the drug treatment on pain intensity, impact of pain on activities of daily living, and consumption of other pain medications.
# In a specific embodiment, clinical studies are performed in pain patients who have upper extremity CRPS that has not responded to conventional physical therapy and has been present for at least one year. In the early course of their diseases, patients have clear evidence of autonomic dysfunction with formal autonomic testing (Quantitative sudomotor axon reflex test (QSART), resting sweat output, and thermography). If this is unavailable, documentation of clinical signs indicates autonomic dysfunction (changes in hydration, temperature, skin, nail or hair growth) along with symptoms of allodynia and swelling. […] Responses are assessed using standard pain scales, e.g., Numeric Pain Scale Assessment (VAS) for pain, quality of life using the McGill Index and objective signs in clinical examination such as a visible reduction of swelling, sweating, discolorations in skin color, temperature changes, changes in skin, hair and nail growth, and fine motor movements. […]
# [2] = Cardiovascular and respiratory function in anesthetized dogs; format: in vivo; details: anesthetized Beagle dogs; ascending doses 400, 800 and 1,200 mg/kg/day by infusion through the jugular vein
# Description: The effects of 3-(3,4-dimethoxy-phenyl)-3-(1-oxo-1,3-dihydro-isoindol-2-yl)-propionamide on cardiovascular and respiratory function are investigated in anesthetized dogs. Two groups of Beagle dogs (2/sex/group) are used. One group receives three doses of vehicle only and the other receives three ascending doses of 3-(3,4-dimethoxy-phenyl)-3-(1-oxo-1,3-dihydro-isoindol-2-yl)-propionamide (400, 800, and 1,200 mg/kg/day). In all cases, doses of 3-(3,4-dimethoxy-phenyl)-3-(1-oxo-1,3-dihydro-isoindol-2-yl)-propionamide or vehicle are successively administered via infusion through the jugular vein separated by intervals of at least 30 minutes.
# [3] = tested on: TNF-α production; test: Inhibition of TNF-α production following LPS-stimulation of human PBMC and human whole blood; format: cell-based; details: in vitro studies; compared with thalidomide
# Description: In a specific embodiment, the pharmacological properties of 3-(3,4-dimethoxy-phenyl)-3-(1-oxo-1,3-dihydro-isoindol-2-yl)-propionamide are characterized in in vitro studies. Studies examine the effects of the compound on the production of various cytokines. Inhibition of TNF-α production following LPS-stimulation of human PBMC and human whole blood by the compound is investigated in vitro. The IC50's of the compound for inhibiting production of TNF-α are measured. […] The pharmacological effects of 3-(3,4-dimethoxy-phenyl)-3-(1-oxo-1,3-dihydro-isoindol-2-yl)-propionamide may derive from its action as an inhibitor of the generation of inflammatory cytokines.
# [4] = 8 to 10 mg/kg i.p.; acute pain assays; cited from earlier work
Compound,tolerability [1],cardiovascular and respiratory changes compared to the vehicle control group [2],"pharmacological activity profile, potency relative to thalidomide [3]",anti-nociceptive response [4]
"COc1ccc(C(CC(N)=O)N2Cc3ccccc3C2=O)cc1OC (stereo not shown) [3-(3,4-dimethoxy-phenyl)-3-(1-oxo-1,3-dihydro-isoindol-2-yl)-propionamide]",well-tolerated,minimal at all doses,five to fifty,–
CN1CC[C@]23c4c5ccc(O)c4O[C@H]2[C@@H](O)C=C[C@H]3[C@H]1C5 [morphine],–,–,–,near-maximal anti-nociceptive response
